Reference: patent US12516019B2, “Amphoteric compounds” (Eastman Chemical Company, priority 2015, dated 2026)

Tests used:
Type in all cases: physicochemical
[1] = Water solubility: heated to a clear solution, cooled to ambient temperature; conditions: ambient temperature after heating to a clear solution
Procedure: To a vial was added 5.00 g of 3-((lauryloxycarbonylpropyl)-dimethylammonio)propanesulfonate and 10.00 g of water. The mixture was heated to 100° C. for an hour to afford a clear solution. The mixture was then allowed to cool to ambient temperature, at which point it was still homogeneous with no precipitate or gel.
To a vial was added 5.00 g of 3-((lauryloxycarbonylmethyl)-dimethylammonio)propanesulfonate and 45.00 g of water. The mixture was heated to 100° C. for an hour to afford a clear solution. The mixture was then allowed to cool to ambient temperature resulting in a white solid. The solid was recovered by filtration and dried in a vacuum oven at 55° C. in vacuo with a nitrogen sweep overnight to afford 4.58 g of 3-((lauryloxycarbonylmethyl)-dimethylammonio)propanesulfonate.
To a vial was added 10.00 g of 3-((4-laurylamino-4-oxobutyl)-dimethylammonio)propanesulfonate and 20.00 g of water. The mixture was heated to 100° C. for an hour to afford a clear solution. The mixture was then allowed to cool to ambient temperature, at which point it was still homogeneous with no precipitate or gel.
The solubility of 3-((2-laurylamino-2-oxoethyl)dimethylammonio)-propanesulfonate was determined by mixing 5.00 g of material with 45.00 g of water and heating to 85° C. for 1 h to afford a clear 10 wt % solution. The material was allowed to cool to ambient temperature to afford a precipitate. The precipitate was filtered, and the resulting solid was dried in vacuo at 50° C. with a nitrogen sweep for 3 days to afford 4.54 g of recovered 3-((2-laurylamino-2-oxoethyl)dimethylammonio)propanesulfonate.

[2] = Critical micelle concentration from surface tension (Wilhelmy plate, K100C Tensiometer); conditions: deionized water, ambient temperature
Procedure: The critical micelle concentration (CMC) is an important characteristic of a surfactant, and the CMC values were determined for the amphoteric compounds of formula 1. The CMC is defined as the concentration at which micelle formation first begins, and for surface tension determination of CMC, is typically assigned as the concentration of the intersection of two straight lines through the data, where the first line is the linear portion of the initial decline in surface tension with increasing surfactant concentration, and the second is the line of constant surface tension.
The critical micelle concentration was determined from plots of surface tension as a function of the logarithm of active surfactant concentration. Surface tension was measured via the Wilhelmy plate technique. In this method, the downward force of a rigorously clean plate probe that just contacts the liquid surface of the test sample is measured, and the surface tension is calculated from knowledge of the contact angle the liquid makes with the probe surface and the length of the probe plate.
A K100C Tensiometer (Kruss GmbH) was used to measure surface tension of solutions in a glass sample vessel. All measurements were made under ambient temperature conditions.
The tensiometer was equipped with a computer-controlled microdispensing and aspirating system to automate surfactant concentration adjustments of the test solution while maintaining constant solution volume between successive measurements. A roughened platinum plate probe was used. Cleanliness of probe, sample vessel, and microdispensing system was verified after cleaning between samples by measuring the surface tension of pure deionized water run through the system as a control.
100 mL of the 1 mg/L surfactant solution was added to the clean sample vessel and placed in the instrument. The plate probe was rinsed with deionized water and flame treated to combust off residual organic impurities, then mounted in position in the tensiometer. The experiment was initiated and run through the LabDesk version 3.2.2 (Kruss GmbH) software.
The surface tension measurements were run sequentially (and automatically) from most dilute to most concentrated by incrementally injecting known volume aliquots of the 10,000 mg/L surfactant solution into the sample, homogenizing the sample after injection by stirring for 30 seconds via a magnetic stir bar in the solution, and then aspirating out equal volume that was added to the sample vessel to keep the total sample volume constant for each measurement.
The sample vessel was then automatically moved into measurement position, and the surface tension measurement was made and recorded. This sequence was repeated until all concentrations had been measured.
The active surfactant concentration range spanned from 1 mg/L to 5000 mg/L over 50 concentration increments, equally spaced on a logarithmic scale over the full range of concentrations measured.
The sample at each concentration was measured 10 times, and the average of the 10 measures was plotted against the logarithm of the surfactant concentration.
After completing the full range of concentrations, the software provided best-fit lines to estimate CMC, and these regression lines were manually adjusted as needed to give the broadest range of linear behavior for each line.

[3] = Foam height test, Standard Test Method for Foaming Properties of Surface-Active Agents (ASTM 1173-07); conditions: 49° C.; for Foam height at time t = 0: t = 0 min; for Foam height at time t = 1: t = 1 min; for Foam height at time t = 2: t = 2 min; for Foam height at time t = 3: t = 3 min; for Foam height at time t = 4: t = 4 min; for Foam height at time t = 5: t = 5 min
Description: The Standard Test Method for Foaming Properties of Surface-Active Agents (ASTM 1173-07) for 0.1 wt % and 1.0 wt % was used to determine the foaming properties of the amphoteric compounds of the formula 1 described herein. This method generates foam under low-agitation conditions and is generally used for moderate- and high-foam surfactants. This test gathers data on initial foam height and foam decay. Foam decay provides information on foam stability.
The apparatus for carrying out this test includes a jacketed column and a pipet. The jacketed column serves as a receiver, while the pipet delivers the surface-active solution.
Solutions of each surface-active agent to be measured were prepared in borosilicate glass jars a day ahead of time, using ambient temperature ingredients, and were slowly rolled overnight to homogenize. The solutions were then removed from the rollers and equilibrated in a constant temperature bath (49° C.+/−1° C.) for at least 1 hour before measurement. The solution of the amphoteric compound to be tested was added to the receiver (50 mL) and to the pipet (200 mL). The pipet was positioned above the receiver and opened. As the solution fell and made contact with the solution in the receiver, foam was generated. When the pipet was empty, the time was noted and an initial foam height was recorded. The foam height was recorded each minute for five minutes. Exact size specifications for the glassware can be found in ASTM 1173-07. The foam height results for each amphoteric compound 1 and representative standards are listed below in Tables 1 (0.1% concentration) and 2 (1% concentration).

Compound	solubility in water [1]	Critical micelle concentration (CMC) [2] [mg/L]	Foam height at time t = 0 ([3]; 1 g/L (0.1 weight %)) [mm]	Foam height at time t = 1 ([3]; 1 g/L (0.1 weight %)) [mm]	Foam height at time t = 2 ([3]; 1 g/L (0.1 weight %)) [mm]	Foam height at time t = 3 ([3]; 1 g/L (0.1 weight %)) [mm]	Foam height at time t = 4 ([3]; 1 g/L (0.1 weight %)) [mm]	Foam height at time t = 5 ([3]; 1 g/L (0.1 weight %)) [mm]	Foam height at time t = 0 ([3]; 10 g/L (1.0 weight %)) [mm]	Foam height at time t = 1 ([3]; 10 g/L (1.0 weight %)) [mm]	Foam height at time t = 2 ([3]; 10 g/L (1.0 weight %)) [mm]	Foam height at time t = 3 ([3]; 10 g/L (1.0 weight %)) [mm]	Foam height at time t = 4 ([3]; 10 g/L (1.0 weight %)) [mm]	Foam height at time t = 5 ([3]; 10 g/L (1.0 weight %)) [mm]
CCCCCCCCCCCCOC(=O)C[N+](C)(C)CCCS(=O)(=O)[O-] [Comparative Example 2, 3-((Lauryloxycarbonylmethyl)dimethylammonio)-propanesulfonate, reference compound]	0.92 wt %													
CCCCCCCCCCCCNC(=O)C[N+](C)(C)CCCS(=O)(=O)[O-] [Comparative Example 4, 3-((2-Laurylamino-2-oxoethyl)dimethylammonio)-propanesulfonate, reference compound]	1.02 wt %													
CCCCCCCCCCCCOC(=O)CCC[N+](C)(C)CCCS(=O)(=O)[O-] [Example 5, 3-(3-(Lauryloxycarbonylpropyl)dimethylammonio)-propanesulfonate]	greater than or equal to 33 wt %	53.9	157	154	151	149	147	146	170	166	161	158	154	152
CCCCCCCCCCCCNC(=O)CCC[N+](C)(C)CCCS(=O)(=O)[O-] [Example 14, 3-((4-Laurylamino-4-oxobutyl)dimethylammonio)-propanesulfonate]	greater than or equal to 33 wt %	133.9	143	133	123	108	95	75	157	145	137	129	122	116
